{"source": "patent US9862754B2", "about": "“Peptide analogs for treating diseases and disorders” (KeyBioscience AG, priority 2011, dated 2018)", "type_in_all_cases": "in vivo, rat", "key": {"CTX-I": {"system": "CTX-I", "experiment": "Example 6: serum CTX-I (RatLaps ELISA), bone resorption in DIO rats", "settings": "1 mg/kg p.o. with 150 mg/kg 5-CNAC, 2 hours after treatment, vs sCT", "procedure": "The effect of sCT/calcitonin mimetic on bone and cartilage loss was studied in DIO rats. The animals were dosed as described in Table 6 below, and 2 hours after treatment blood sampling was done by heated tail venous puncture.\nSerum CTX-I levels, as an indication of bone resorption, were measured using the RatLaps™ ELISA, and serum CTX-II levels, as an indication of cartilage degradation, were measured using the Serum PC Cartilaps™ ELISA."}, "[1]": {"experiment": "Example 7: combination with metformin in Zucker Diabetic Fatty rats, FPG, PPG, HbA1c", "settings": "ZDF rats; 8 weeks once daily; metformin 400 mg/kg/day oral, UGP302 5 μg/kg/day s.c.", "procedure": "(§1) To assess the potential of UGP302 (SEQ ID NO: 15) in combination with metformin, Zucker Diabetic Fatty rats were used. At the age of 6 weeks 40 rats were randomized into four groups according to HbA1c, FPG and BW. The groups were: Control (Vehicle), Metformin 400 mg/kg/day, UGP302 5 μg/kg/day and the combination of the two molecules in the stated respective amounts. The treatments were given once daily, and metformin was dosed orally, while UGP302 was given subcutaneously, and the animals were treated for 8 weeks. Fasting blood glucose (FPG) and non-fasted blood glucose (PPG) were monitored biweekly, while HbA1c was measured at termination."}, "[2]": {"experiment": "Example 7: insulin tolerance test in Zucker Diabetic Fatty rats", "settings": "ZDF rats; metformin 400 mg/kg/day oral, UGP302 5 μg/kg/day s.c.", "procedure": "as §1\n(§2) To further assess the effect of both single doses of each molecule and the combination of these at those same doses, the rats underwent an oral glucose tolerance test (OGTT, FIGS. 23A-23B) and an insulin tolerance test (ITT, FIGS. 24A-24B)."}, "[3]": {"experiment": "Example 7: oral glucose tolerance test in Zucker Diabetic Fatty rats", "settings": "ZDF rats; metformin 400 mg/kg/day oral, UGP302 5 μg/kg/day s.c.", "procedure": "as §1, §2"}, "[4]": {"experiment": "Example 1: OGTT after 2 weeks of oral treatment in DIO rats", "settings": "after 2 weeks of treatment, overnight fasting, 1 mg/kg p.o., vs oral vehicle", "procedure": "Drug administration by per oral (p.o.) gavage b.i.d. (7-8 am and 3-4 pm) during the study period and as single dose in the morning prior to start of OGTT.\n(§3) Animals were given 2 g/kg single dose dissolved in milliQ H20.\n(§4) OGTT Following Overnight Fasting (16 h):\nBlood sampling and glycemia were measured by heated tail venous puncture.\nWhole blood glucose levels were determined with an ACCU-CHEK® Avia blood glucose meter (Roche Diagnostics, Rotkreuz, Switzerland). Blood (approx 300 ul) is collected in 1 ml MiniCollect K3EDTA plasma-tube (Greiner-Bio-One GmbH, Frickenhausen, Germany), inverted, and stored on ice. Tubes are centrifuged 3000×g (5000 rpm in table centrifuge) for 10 min at 4° C. and plasma obtained. Plasma samples are stored at −20° C. until analysis. A total of ˜2.5 ml blood is obtained during OGTT (˜0.3% of body weight).\nStatistical analysis was performed by one-way ANOVA followed by the Dunnett's post hoc test for multiple comparison. Student's t-test was performed to compare two paired group. All analysis was performed using GRAPHPAD PRISM software (GraphPad Prism, San Diego, Calif. U.S.A). Incremental area under curve (iAUC) during OGTT was calculated by the trapezoidal method. A value of P<0.05 was considered to be significant. All data are presented as mean±standard error of the mean (SEM). […]"}, "[5]": {"experiment": "Example 2: OGTT after 3 days of oral treatment in DIO rats", "settings": "0.5, 1 and 2 mg/kg p.o. b.i.d. 3 days prior to OGTT, cross-over, vs oral vehicle", "procedure": "Drug administration were given by per oral (p.o.) gavage b.i.d. during the study period and as single dose in the morning prior to start of OGTT.\nas §3\nFollowing the initial (1st) OGTT, animals are randomized into treatment groups based on FBG and BW. Animals will be pre-treated 3 days (b.i.d.) prior to 2nd OGTT. Dosing will be performed in the morning (7-8 am) and afternoon (3-4 pm).\nThe study was performed in an x-over design with each animal being its own control.\nas §4\nWhole blood glucose levels were determined with an ACCU-CHEK® Avia blood glucose meter (Roche Diagnostics, Rotkreuz, Switzerland). […]\nStatistical analysis was performed by one-way ANOVA followed by the Dunnett's post hoc test for multiple comparison. […] Incremental area under curve (iAUC) during OGTT was calculated by the trapezoidal method. […]\nThree different doses of oral sCT/calcitonin mimetic 1 containing 0.5, 1 and 2 mg/kg compound were applied by gavage twice daily to 4 groups of rats for 3 days prior to OGTT. […] FIG. 7A and FIG. 7B show the effect of oral sCT versus oral UGP 302 at a first dosage on glucose tolerance during OGTT in DIO rats as measured in Example 2. FIG. 8A and FIG. 8B show the effect of oral sCT versus oral UGP 302 at a second dosage on glucose tolerance during OGTT in DIO rats as measured in Example 2."}}, "note": "Bridge positions count the residues as written; N and C are the ends. Ends that are not written are not given here."}
{"substance": "Ac-CSNLSTCVLGKLSQELHKLQTYPRTDVGANAP-NH2 (Ac-CSNLSTCVLGKLSQELHKLQTYPRTDVGANAP-NH2; ends and bridges not checked) [UGP302, calcitonin mimetic]", "values": [{"measurement": "bone resorption (serum CTX-I levels)", "setting": "CTX-I", "result": "stronger effect in reduction"}, {"measurement": "fasting blood glucose (FPG)", "setting": "[1]", "result": "pronounced reduction throughout the study"}, {"measurement": "non-fasted blood glucose (PPG)", "setting": "[1]", "result": "pronounced reduction throughout the study"}, {"measurement": "insulin tolerance (ITT)", "setting": "[2]", "result": "individually improve"}, {"measurement": "glucose tolerance (OGTT)", "setting": "[3]", "result": "individually improve"}]}
{"substance": "salmon calcitonin (CSNLSTCVLGKLSQELHKLQTYPRTNTGSGTP-NH2; disulfide 1-7; ends not checked) [sCT, reference compound]", "values": [{"measurement": "glucose iAUC during OGTT", "setting": "[4]", "result": "significantly reduced glucose iAUC"}, {"measurement": "glucose iAUC during OGTT", "setting": "[5]", "result": "significantly reduced glucose iAUC"}]}
